Experimental data published in PubChem BioAssay AID328 (DTP/NCI, 2004).
Where “and” joins values, the source holds several entries; their conditions need not be identical. Equal values may be shown once. Toxic doses and inconclusive results are not listed.

Test system: BDF1 mice, P388 leukemia ip, median survival T/C
Assay: NCI In Vivo Anticancer Drug Screen. Data for tumor model P388 Leukemia (intraperitoneal) in B6D2F1 (BDF1) mice
Details: endpoint: median survival time, higher = longer survival
How it was run: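 Read-out is survival of treated animals expressed relative to the vehicle group, as a T/C ratio.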

[1] = dose: 25.0 mg/kg/injection, schedule: Q01DX009 (ip), vehicle: saline with Tween-80
[2] = dose: 50.0 mg/kg/injection, schedule: Q01DX009 (ip), vehicle: saline with Tween-80
[3] = dose: 100.0 mg/kg/injection, schedule: Q01DX009 (ip), vehicle: saline with Tween-80
[4] = dose: 100.0 mg/kg/injection, schedule: Q04DX003 (ip), vehicle: saline with Tween-80
[5] = dose: 200.0 mg/kg/injection, schedule: Q01DX009 (ip), vehicle: saline with Tween-80
[6] = dose: 200.0 mg/kg/injection, schedule: Q04DX003 (ip), vehicle: saline with Tween-80
[7] = dose: 400.0 mg/kg/injection, schedule: Q04DX003 (ip), vehicle: saline with Tween-80
[8] = dose: 100.0 mg/kg/injection, schedule: Q01DX009 (ip), vehicle: Klucel (hydroxypropylcellulose) (HPC)
[9] = dose: 200.0 mg/kg/injection, schedule: Q01DX009 (ip), vehicle: Klucel (hydroxypropylcellulose) (HPC)
[10] = dose: 400.0 mg/kg/injection, schedule: Q01DX009 (ip), vehicle: Klucel (hydroxypropylcellulose) (HPC)
[11] = dose: 100.0 mg/kg/injection, schedule: Q04DX003 (ip), vehicle: saline
[12] = dose: 200.0 mg/kg/injection, schedule: Q04DX003 (ip), vehicle: saline
[13] = dose: 400.0 mg/kg/injection, schedule: Q04DX003 (ip), vehicle: saline
[14] = dose: 50.0 mg/kg/injection, schedule: Q01DX005 (ip), vehicle: saline with Tween-80
[15] = dose: 100.0 mg/kg/injection, schedule: Q01DX005 (ip), vehicle: saline with Tween-80
[16] = dose: 200.0 mg/kg/injection, schedule: Q01DX005 (ip), vehicle: saline with Tween-80
[17] = dose: 50.0 mg/kg/injection, schedule: Q01DX009 (ip), vehicle: saline
[18] = dose: 150.0 mg/kg/injection, schedule: Q01DX009 (ip), vehicle: Klucel (hydroxypropylcellulose) (HPC)
[19] = dose: 100.0 mg/kg/injection, schedule: Q04DX003 (ip), vehicle: Klucel (hydroxypropylcellulose) (HPC)
[20] = dose: 200.0 mg/kg/injection, schedule: Q04DX003 (ip), vehicle: Klucel (hydroxypropylcellulose) (HPC)

COc1ccc(CC(=O)Cc2ccc(OC)c(OC)c2)cc1OC was tested, and the T/C [1] was 104 % of control, the T/C [2] was 113 % of control and the T/C [3] was 113 % of control and 123 % of control. For the same molecule, the T/C [4] was 109 % of control, the T/C [5] was 95 % of control and 120 % of control and the T/C [6] was 104 % of control. The T/C (dose: 400.0 mg/kg/injection, schedule: Q01DX009 (ip), vehicle: saline with Tween-80) was 118 % of control and the T/C [7] was 90 % of control.
In the case of O=C(c1cc2c3ccccc3ccc2c2ccccc12)C(Br)Br, the T/C [1] is reported as 113 % of control.
C=C(C)[C@@H]1CC[C@]2(CO)CC[C@]3(C)[C@H](CC[C@@H]4[C@@]5(C)CC[C@H](O)C(C)(C)[C@@H]5CC[C@]43C)[C@@H]12 was tested, and the T/C (dose: 10.0 mg/kg/injection, schedule: Q01DX009 (ip), vehicle: saline with Tween-80) was 94 % of control, the T/C (dose: 20.0 mg/kg/injection, schedule: Q01DX009 (ip), vehicle: saline with Tween-80) was 99 % of control and the T/C (dose: 40.0 mg/kg/injection, schedule: Q01DX009 (ip), vehicle: saline with Tween-80) was 100 % of control. For the same molecule, the T/C (dose: 75.0 mg/kg/injection, schedule: Q01DX009 (ip), vehicle: other) was 97 % of control, the T/C (dose: 80.0 mg/kg/injection, schedule: Q01DX009 (ip), vehicle: saline with Tween-80) was 95 % of control and the T/C [8] was 101 % of control. For the same molecule, the T/C (dose: 150.0 mg/kg/injection, schedule: Q01DX009 (ip), vehicle: other) was 106 % of control, the T/C [9] was 98 % of control and the T/C [10] was 111 % of control.
With COC(=O)c1cc2ccccc2o1 the T/C [4] was 95 % of control, the T/C [6] was 95 % of control and the T/C [7] was 91 % of control.
In the case of Cc1c2oc3c(C)ccc(C(=O)NCc4cccnc4)c3nc-2c(C(=O)NCc2cccnc2)c(N)c1=O, the T/C [4] is reported as 96 % of control, the T/C [6] is reported as 96 % of control and the T/C [7] is reported as 100 % of control.
With c1ccc2c(c1)Sc1cnccc1N2CC1CO1 (stereo not given) the T/C [11] was 104 % of control, the T/C [12] was 90 % of control and the T/C [13] was 95 % of control.
For CCOc1cc(C=Nc2cccc(C(F)(F)F)c2)ccc1O, the T/C (dose: 100.0 mg/kg/injection, schedule: Q04DX003 (ip), vehicle: other) was 95 % of control and the T/C (dose: 400.0 mg/kg/injection, schedule: Q04DX003 (ip), vehicle: other) was 95 % of control.
With O=C(Nc1cccc2ccccc12)N1c2ccccc2SC12CCCC2 the T/C [3] was 91 % of control.
CCCO/C(N)=N/OS(=O)(=O)c1ccccc1 was tested, and the T/C [4] was 97 % of control, the T/C [6] was 99 % of control and the T/C [7] was 96 % of control.
Nc1nc2nc(N=Nc3ccc(Br)cc3)[nH]c2c(=O)[nH]1 was tested, and the T/C [14] was 98 % of control, the T/C [15] was 97 % of control and the T/C [16] was 100 % of control.
With Cc1ccc(NC(=O)c2ccccc2)cc1[As]=[As]c1cc(NC(=O)c2ccccc2)ccc1C (stereo not given) the T/C (dose: 1.25 mg/kg/injection, schedule: Q01DX009 (ip), vehicle: gum acacia) was 150 % of control, the T/C (dose: 1.25 mg/kg/injection, schedule: Q04DX003 (ip), vehicle: gum acacia) was 122 % of control and the T/C (dose: 2.2 mg/kg/injection, schedule: Q04DX003 (ip), vehicle: gum acacia) was 113 % of control. For the same molecule, the T/C (dose: 2.5 mg/kg/injection, schedule: Q01DX009 (ip), vehicle: gum acacia) was 165 % of control, the T/C (dose: 3.3 mg/kg/injection, schedule: Q04DX003 (ip), vehicle: Klucel (hydroxypropylcellulose) (HPC)) was 116 % of control and the T/C (dose: 5.0 mg/kg/injection, schedule: Q04DX003 (ip), vehicle: Klucel (hydroxypropylcellulose) (HPC)) was 104 % of control. For the same molecule, the T/C (dose: 10.0 mg/kg/injection, schedule: Q04DX003 (ip), vehicle: gum acacia) was 154 % of control.
With O=C1CN=C(c2ccccn2)c2cc(Cl)ccc2N1CCO the T/C [4] was 105 % of control, the T/C [6] was 110 % of control and the T/C [7] was 115 % of control.
In the case of NC(CSC(c1ccccc1)(c1ccccc1)c1ccc(CO)cc1)C(=O)O (stereo not given), the T/C (dose: 3.0 mg/kg/injection, schedule: Q01DX009 (ip), vehicle: Klucel (hydroxypropylcellulose) (HPC)) is reported as 100 % of control, the T/C (dose: 6.0 mg/kg/injection, schedule: Q01DX009 (ip), vehicle: Klucel (hydroxypropylcellulose) (HPC)) is reported as 113 % of control and the T/C (dose: 12.0 mg/kg/injection, schedule: Q01DX009 (ip), vehicle: Klucel (hydroxypropylcellulose) (HPC)) is reported as 122 % of control. The T/C (dose: 12.0 mg/kg/injection, schedule: Q01DX009 (ip), vehicle: saline) was 109 % of control, the T/C (dose: 12.0 mg/kg/injection, schedule: Q04DX003 (ip), vehicle: saline) was 100 % of control and the T/C (dose: 25.0 mg/kg/injection, schedule: Q01DX009 (ip), vehicle: Klucel (hydroxypropylcellulose) (HPC)) was 150 % of control. The T/C (dose: 25.0 mg/kg/injection, schedule: Q01DX009 (ip), vehicle: saline) was 159 % of control, the T/C (dose: 25.0 mg/kg/injection, schedule: Q04DX003 (ip), vehicle: saline) was 103 % of control and the T/C (dose: 50.0 mg/kg/injection, schedule: Q01DX009 (ip), vehicle: Klucel (hydroxypropylcellulose) (HPC)) was 168 % of control. The T/C [17] was 163 % of control, the T/C (dose: 50.0 mg/kg/injection, schedule: Q04DX003 (ip), vehicle: saline) was 111 % of control and the T/C (dose: 75.0 mg/kg/injection, schedule: Q01DX009 (ip), vehicle: Klucel (hydroxypropylcellulose) (HPC)) was 159 % of control. For the same molecule, the T/C [18] was 154 % of control, the T/C (dose: 300.0 mg/kg/injection, schedule: Q01DX009 (ip), vehicle: Klucel (hydroxypropylcellulose) (HPC)) was 259 % of control and the T/C [10] was 272 % of control. The T/C [13] was 155 % of control.
For COC(=O)CCC1([N+](=O)[O-])CCCCC1, the T/C [1] was 87 % of control, the T/C (dose: 25.0 mg/kg/injection, schedule: Q04DX003 (ip), vehicle: saline with Tween-80) was 92 % of control and the T/C [2] was 95 % of control. The T/C (dose: 50.0 mg/kg/injection, schedule: Q04DX003 (ip), vehicle: saline with Tween-80) was 92 % of control, the T/C [3] was 95 % of control and the T/C [4] was 88 % of control.
With N#Cc1cnc2nc(N)nc(N)c2c1 the T/C [17] was 104 % of control, the T/C (dose: 100.0 mg/kg/injection, schedule: Q01DX009 (ip), vehicle: saline) was 107 % of control and the T/C [11] was 108 % of control. The T/C (dose: 200.0 mg/kg/injection, schedule: Q01DX009 (ip), vehicle: saline) was 117 % of control and the T/C [12] was 116 % of control.
With C(=C\c1cccnc1)/c1ccncc1 the T/C (dose: 66.0 mg/kg/injection, schedule: Q01DX009 (ip), vehicle: Klucel (hydroxypropylcellulose) (HPC)) was 158 % of control, the T/C (dose: 66.0 mg/kg/injection, schedule: Q01DX009 (ip), vehicle: saline with Tween-80) was 108 % of control and the T/C [8] was 178 % of control. The T/C [3] was 94 % of control, the T/C [19] was 100 % of control and the T/C [18] was 158 % of control. For the same molecule, the T/C (dose: 150.0 mg/kg/injection, schedule: Q01DX009 (ip), vehicle: saline with Tween-80) was 108 % of control and the T/C [20] was 86 % of control.
With CCCCCCCCCCCC[N+](C)(C)CCCCCC[N+](C)(C)CCCCCCCCCCCC the T/C (dose: 3.13 mg/kg/injection, schedule: Q01DX009 (ip), vehicle: saline) was 113 % of control, the T/C (dose: 6.25 mg/kg/injection, schedule: Q01DX009 (ip), vehicle: saline) was 116 % of control and the T/C (dose: 12.5 mg/kg/injection, schedule: Q01DX009 (ip), vehicle: saline) was 94 % of control.
Cc1c(N)c2ccccc2c(=O)n1C was tested, and the T/C [14] was 92 % of control, the T/C [15] was 97 % of control and the T/C [16] was 106 % of control.
In the case of N#Cc1ccc(/C=N/NC(N)=S)s1, the T/C [2] is reported as 97 % of control, the T/C [3] is reported as 102 % of control and the T/C [5] is reported as 97 % of control.
In the case of O=C(CS)CS, the T/C (dose: 6.25 mg/kg/injection, schedule: Q01DX009 (ip), vehicle: water) is reported as 102 % of control, the T/C (dose: 12.5 mg/kg/injection, schedule: Q01DX009 (ip), vehicle: water) is reported as 102 % of control and the T/C (dose: 25.0 mg/kg/injection, schedule: Q01DX009 (ip), vehicle: water) is reported as 93 % of control. The T/C (dose: 50.0 mg/kg/injection, schedule: Q01DX009 (ip), vehicle: water) was 104 % of control.
With CC(=O)NNc1ccc([N+](=O)[O-])cc1 the T/C [8] was 100 % of control, the T/C [19] was 105 % of control and the T/C [9] was 90 % of control. The T/C [20] was 90 % of control, the T/C [10] was 90 % of control and the T/C (dose: 400.0 mg/kg/injection, schedule: Q04DX003 (ip), vehicle: Klucel (hydroxypropylcellulose) (HPC)) was 90 % of control.
